# Reference: patent publication US7041639B2, “Depsipeptide and congeners thereof for use as immunosuppressants” (XCYTE Therapies, Inc., priority 1999, dated 2006)
# Experiments:
# Assay type in all cases: cell-based, human
# [1] = test system: activated T-cells (peripheral blood lymphocytes); assay: Proliferation inhibition assay, CFDA-SE staining; details: added at time 0 or 24, 72, 120 hours post-stimulation with 3×28 beads; day 6; FIG. 7
# Experimental: Peripheral blood lymphocytes are prepared as described above, stimulated with 3×28 beads and stained with carboxyfluorescein diacetate succinimidyl ester (CFDA-SE) at day 6 post stimulation. Cell stimulation was carried out as indicated above and the cells were washed twice with PBS and resuspended in media and incubated with CFDA-SE (Molecular Probes, OR). After about 10 minutes of staining, the cells are washed with media and FPS and dye incorporation was measured. FR901228 was added at various time points post-stimulation, at time 0 or at 24, 72, and 120 hours post-stimulation. FIG. 7 depicts flow data generated by CFDA-SE staining. The y-axis sets forth mean fluoresence intensity, which relates to the inverse of cell growth.
# [2] = test system: peripheral blood lymphocyte (PBL); assay: Proliferation by MTT assay, PBL cultures
# Experimental: Cells isolated from human blood are grown in X-vivo media (Biowhittaker Inc., Walkersville, Md.) and depending on use supplemented with or without 20 U/ml IL-2 (Boehringer Mannheim, Indianapolis, Ind.) and supplemented with 5% human serum (Biowhittaker), 2 mM Glutamine (Life Technologies, Rockville, Md.) and 20 mM HEPES (Life Technology). Jurkat E6-1 cells (ATCC, Manassas, Va.) are grown in RPMI 1640 (Life Technologies) supplemented with 10% fetal bovine serum (FBS) (Biowhittaker), 2 mM glutamine (Life Technologies), […] (Life Technologies), and […] (Life Technologies).
# Buffy coats from healthy human volunteer donors are obtained (American Red Cross, Portland, Oreg.). Peripheral blood mononuclear cells (PBMC) are obtained using Lymphocyte Separation Media (ICN Pharmaceuticals, Costa Mesa, Calif.) according to the manufacturers' instructions.
# Peripheral blood lymphocytes (PBL) are obtained from the PBMC fraction by incubation in a culture flask (Costar, Pittsburgh, Pa.) or with uncoated Dynabeads (Dynal, Oslo, Norway), 1×10^8 cells/ml, 2 beads/cell, 2 h at 37° C. Monocytes and macrophages are removed by adherence to the culture flask or phagocytoze the paramagnetic beads that are depleted by magnetic cell separation according to the manufacture's instruction (Dynal). […] The purity of CD4 cells are routinely 91–95% as measured by flow cytometry. […]
# [3] = test system: CD154 on CD4 cells; assay: CD154 expression on CD4 cells with or without IL-2; details: 20 ng/ml added day three; 3×28 beads and/or 20 units/ml IL-2; read day 4; FIG. 9
# Experimental: The effect of FR901228 on the induction of the CD154 activation marker on CD4 cells is studied. In this regard, cells are labeled with FITC-coupled anti-human CD4 Ab (Immunotech, Fullerton, Calif.), PE-coupled anti-human CD154 Ab (Becton Dickinson, Fullerton, Calif.), or FITC- or PE-coupled IgG1 isotype control Ab. Cells, 2×10^5 are labeled for 20 minutes at 4° C. with 2 μl of each antibody in a final volume of 30 μl, washed and resuspended in 1% parformaldehyde (Sigma, St. Louis, Mo.). The cells are stimulated for four days in the presence of 3×28 beads and/or 20 units/ml IL-2 or an anti-IL-2 antibody at day three, FR901228 is added to the culture at a concentration of 20 ng/ml. On day 4, mean fluorescence intensity is measured by flow cytometry.
smiles,measurement,setting,value
C/C=C1\NC(=O)[C@H]2CSSCC/C=C/[C@H](CC(=O)N[C@H](C(C)C)C(=O)N2)OC(=O)[C@H](C(C)C)NC1=O [FR901228],cell growth of activated T-cells (CFDA-SE mean fluorescence intensity),[1],inhibited
same,inhibition of peripheral blood lymphocyte (PBL) proliferation,"[2]; stimulation by beads having anti-CD3 and anti-CD28 antibodies, FIG. 1",dose dependent inhibition
same,inhibition of peripheral blood lymphocyte (PBL) proliferation,"[2]; stimulation with Ionomycin/PMA, FIG. 2",dose dependent inhibition
same,CD154 expression in presence or absence of IL-2,[3],suppression of CD154 expression
